Test results published in patent US20240285773A1, “METHODS OF TREATING MYELODYSPLASTIC SYNDROME AND MONITORING THE TREATMENT” (Geron Corporation, priority 2023, published 2024).
Several values for one entry are separate records, joined by “and”; a condition that tells them apart may be missing. Equal values may be shown once. [nps] = N3'→P5' thiophosphoramidate linkage; {Palm} = palmitoyl lipid

Columns and labels:
DNMT3A = experiment: Gene mutation analysis (NGS): DNMT3A VAF and clinical response; type: in vivo, human; details: imetelstat group
Source text: (§1) VAF for the target genes can be determined and/or measured using any convenient methods. In one such method, whole blood collected in an EDTA tube is used to perform Next Generation Sequencing (NGS), for example, using LeukoVantage®. NGS using any other sequencing platform can be used, for example, nanopore sequencing, paired-end sequencing, Ion Torrent sequencing, and single molecule real time (SMRT) sequencing. An MDS gene panel can be used. For example, a gene panel containing one or more of SF3B1, TET2, DNMT3A and ASXL1 can be used. […] The percentage of mutation reads will be reported and can be used to assess the size of the clonal population. VAF is the percentage of sequence reads observed matching a specific DNA variant divided by the overall coverage at that locus. […]
(§2) VAF changes were assessed from blood taken pre- and every 12 weeks post-treatment in patients with greater than or equal to 5% variant allele at baseline and >1 post-baseline assessment. T-tests evaluated group comparison, Fisher's exact test evaluated association, and linear regression evaluated correlation. […]
(§3) Blood samples were collected at baseline and during study visits approximately every 12 weeks. […] The lower limit of sensitivity is 5% mutated alleles in a mixed population; the percentage of mutation reads is reported and used to assess the size of the clonal population.

SF3B1 = experiment: Gene mutation analysis (NGS): SF3B1 VAF and clinical response; type: in vivo, human
Source text: VAF for the target genes can be determined and/or measured using any convenient methods. In one such method, whole blood collected in an EDTA tube is used to perform Next Generation Sequencing (NGS), for example, using LeukoVantage®. NGS using any other sequencing platform can be used, for example, nanopore sequencing, paired-end sequencing, Ion Torrent sequencing, and single molecule real time (SMRT) sequencing. An MDS gene panel can be used. For example, a gene panel containing one or more of SF3B1, TET2, DNMT3A and ASXL1 can be used. In a specific embodiment, a gene panel that includes the following 36 genes was used: ASXL1, ATM, BCOR, CBL, CEBPA, CSF3R, CUX1, DNMT3A, ETNK1, ETV6, EZH2, FLT3, GATA2, IDH1, IDH2, IKZF1, JAK2, KRAS, NF1, NPM1, NRAS, PHF6, PTEN, PTPN11, RUNX1, SETBP1, SF3B1, SRSF2, STAG2, STAT3, STK11, TET2, TP53, U2AF1, WT1, ZRSR2. The NGS assay can be performed using DNA bait capture methodology on the NextSeq® (Illumina®) platform. Following DNA extraction from leukocytes, a targeted, amplicon-based NGS method is used to detect mutations. […] The percentage of mutation reads will be reported and can be used to assess the size of the clonal population. VAF is the percentage of sequence reads observed matching a specific DNA variant divided by the overall coverage at that locus. Because NGS provides a near random sample, VAF is thus a surrogate measure of the proportion of DNA molecules in the original specimen carrying the variant.
VAF changes were assessed from blood taken pre- and every 12 weeks post-treatment in patients with greater than or equal to 5% variant allele at baseline and >1 post-baseline assessment. T-tests evaluated group comparison, Fisher's exact test evaluated association, and linear regression evaluated correlation. […] The patients achieving ≥8-weeks, ≥24-weeks, and >1-year TI in the imetelstat group were enriched with patients who had ≥50% reductions in SF3B1 and TET2 VAF compared with placebo (FIG. 10).
Blood samples were collected at baseline and during study visits approximately every 12 weeks. Following DNA extraction from leukocytes, a targeted, amplicon-based next generation sequencing was performed at Quest Diagnostics using DNA bait capture methodology on the NextSeq® (Illumina®) platform and a LeukoVantage® MDS Gene Panel covering 36 MDS-relevant genes. The lower limit of sensitivity is 5% mutated alleles in a mixed population; the percentage of mutation reads is reported and used to assess the size of the clonal population.

TET2 = experiment: Gene mutation analysis (NGS): TET2 VAF and clinical response; type: in vivo, human; details: imetelstat group
Source text: as §1, §2, §3

bone marrow RS cells = experiment: Reduction in bone marrow ring sideroblasts; set-up: species or system human; details: in vivo
Source text: FIG. 20. […] Also, RBC-TI responders were higher in patients achieving ≥50% reduction in central bone marrow RS.

[1] = test system: RBC transfusion-dependent patients with IPSS low or intermediate-1 risk MDS; experiment: Phase 3 trial: hematologic improvement-erythroid (HI-E) and hemoglobin; type: in vivo, human
Source text: The primary end point was rate of RBC-TI for 8 consecutive weeks or longer. Key secondary end points included rate of 24-week TI, duration of TI, and the rate of hematologic response (hematologic improvement-erythroid [HI-E], based on modified International Working Group [IWG] 2006 criteria, and HI-E per revised IWG 2018). Additional secondary end points included relative change in number of RBC transfusions received by patients, relative change in hemoglobin, and safety. The changes in mutational status and in patient-reported fatigue over time (assessed by the Functional Assessment of Chronic Illness Therapy [FACIT] Fatigue Scale) were exploratory end points. Subgroup analyses were performed including baseline presence or absence of RS, prior RBC transfusion burden (≥4 to ≤6 or >6 RBC units/8-weeks during a 16-week period prior to randomization), and low or intermediate-1 IPSS risk categories. Subgroup analyses were also performed, including baseline mutation status as well as telomerase activity (TA), telomere lengths (TL), and human telomerase reverse transcriptase (hTERT) levels. Peripheral blood hematology, bone marrow evaluation, mutation assessment, and cytogenetic evaluation were performed centrally and responses assessed by an independent review committee (IRC). Rate of 1-year RBC-TI was reported as a post hoc analysis.
Key Secondary End Point Rate of hematologic improvement, including HI-E: per modified IWG 2006.
Changes over time in transfusion units and hemoglobin levels were compared by a mixed model for repeated measures with weeks since randomization, prior transfusion burden, minimum hemoglobin in the 8 weeks prior to first dose (for hemoglobin), and treatment arm as the independent variables with autoregressive moving average covariance structure.

[2] = SF3B1 VAF ≥50% reduction No (N=55)
[3] = SF3B1 VAF ≥50% reduction Yes (N=23)

Substance: Imetelstat: first-in-class telomerase inhibitor; synthetic lipid-conjugated 13-mer oligonucleotide N3′→P5′-thiophosphoramidate (TAGGGTTAGACAA; all [nps], 5' {Palm}, sugars by position and methylation of C not given here)
- Pearson's r: maximum % reduction in DNMT3A VAF vs maximum change in hemoglobin (DNMT3A; n=13): −0.667
- Pearson's r: maximum % reduction in DNMT3A VAF vs duration of TI (DNMT3A; n=18): −0.545
- Maximal reduction in SF3B1 VAF (SF3B1; 18 ≥1-year TI responders with mutation data): −6% to −100%
- 1-Year RBC-TI Yes (SF3B1; [2]): 5.5%
- 8-Week RBC-TI Yes (SF3B1; [2]): 38.2%
- 24-Week RBC-TI Yes (SF3B1; [2]): 23.6%
- 1-Year RBC-TI Yes (SF3B1; [3]): 47.8%
- 8-Week RBC-TI Yes (SF3B1; [3]): 82.6%
- 24-Week RBC-TI Yes (SF3B1; [3]): 69.6%
- Pearson's r: maximum % reduction in SF3B1 VAF vs maximum change in hemoglobin (SF3B1; imetelstat group, n=67): −0.626
- Complete elimination of the SF3B1 VAF, patients (SF3B1; ≥1-year TI responders (of 18)): 7 patients
- ≥50% SF3B1 VAF reduction (SF3B1; ≥1-year TI responders (of 18)): 72.2%
- ≥50% SF3B1 VAF reduction, patients (SF3B1; ≥1-year TI responders (of 18)): 13 patients
- Pearson's r: maximum % reduction in TET2 VAF vs maximum change in hemoglobin (TET2; n=32): −0.659
- Pearson's r: maximum % reduction in TET2 VAF vs duration of TI (TET2; n=38): −0.577
- Patients achieving ≥50% reduction in bone marrow RS cells (bone marrow RS cells): 41%
- Median hemoglobin peak ([1]; 8-week TI responders): 11.3 g/dL
- Median hemoglobin increase from pretreatment to peak ([1]; 8-week TI responders, during TI period): 3.55 g/dL and 3.6 g/dL
- Major HI-E response, % difference vs placebo ([1]; HTB subjects): 30.9%
- Minor HI-E response, % difference vs placebo ([1]; HTB subjects): 34.8%
- Major HI-E response (16-week RBC-TI), patients ([1]; HTB subjects (97)): 30 No. of patients
- Minor HI-E response (50% RBC units reduction in 16 weeks), patients ([1]; HTB subjects (97)): 43 No. of patients
- HI-E response (16-week RBC-TI), % difference vs placebo ([1]; LTB subjects): 11.1%
- HI-E response (16-week RBC-TI), patients ([1]; LTB subjects (21)): 7 No. of patients
- HI-E per IWG 2006, patients ([1]; N=118): 75 n
- HI-E per IWG 2018, patients ([1]; N=118): 50 n
- Increase in hemoglobin ≥1.5 g/dL for ≥8 wk, patients ([1]; N=118): 40 n
- Transfusion reduction by 50%/16 weeks rate ([1]; N=118): 43.2%
- Transfusion reduction by 50%/16 weeks, patients ([1]; N=118): 51 n
- Transfusion reduction by ≥4 units/8 wk, patients ([1]; N=118): 71 n
- HI-E per IWG 2018 rate ([1]; N=118, listed as imetelstat): 42% and 42.4%
- Increase in hemoglobin ≥1.5 g/dL for ≥8 wk rate ([1]; N=118, listed as imetelstat): 34%
- HI-E IWG 2006, % difference vs placebo ([1]; in vivo): 11.9%,
- HI-E IWG 2018, % difference vs placebo ([1]; in vivo): 29.0%,
- Increase in hemoglobin ≥1.5 g/dL for ≥8 wk, % difference vs placebo ([1]; in vivo): 23.9%
- Transfusion reduction by ≥4 units/8 wk, % difference vs placebo ([1]; in vivo): 10.2%,
- Median increase in hemoglobin during the longest TI interval ([1]; ≥1-year TI responders): 5.2 g/dL and 5.18 g/dL
